For data set [1], the target named is T1, ASK1 T838 auto phosphorylation (Homo sapiens, UniProt Q99683).
T1 construct: transfected with 9 μg of ASK1-V5 tagged full length plasmid; expressed in transfected cells; host or cells: HEK-293T
T1 sequence (Q99683 1-1374): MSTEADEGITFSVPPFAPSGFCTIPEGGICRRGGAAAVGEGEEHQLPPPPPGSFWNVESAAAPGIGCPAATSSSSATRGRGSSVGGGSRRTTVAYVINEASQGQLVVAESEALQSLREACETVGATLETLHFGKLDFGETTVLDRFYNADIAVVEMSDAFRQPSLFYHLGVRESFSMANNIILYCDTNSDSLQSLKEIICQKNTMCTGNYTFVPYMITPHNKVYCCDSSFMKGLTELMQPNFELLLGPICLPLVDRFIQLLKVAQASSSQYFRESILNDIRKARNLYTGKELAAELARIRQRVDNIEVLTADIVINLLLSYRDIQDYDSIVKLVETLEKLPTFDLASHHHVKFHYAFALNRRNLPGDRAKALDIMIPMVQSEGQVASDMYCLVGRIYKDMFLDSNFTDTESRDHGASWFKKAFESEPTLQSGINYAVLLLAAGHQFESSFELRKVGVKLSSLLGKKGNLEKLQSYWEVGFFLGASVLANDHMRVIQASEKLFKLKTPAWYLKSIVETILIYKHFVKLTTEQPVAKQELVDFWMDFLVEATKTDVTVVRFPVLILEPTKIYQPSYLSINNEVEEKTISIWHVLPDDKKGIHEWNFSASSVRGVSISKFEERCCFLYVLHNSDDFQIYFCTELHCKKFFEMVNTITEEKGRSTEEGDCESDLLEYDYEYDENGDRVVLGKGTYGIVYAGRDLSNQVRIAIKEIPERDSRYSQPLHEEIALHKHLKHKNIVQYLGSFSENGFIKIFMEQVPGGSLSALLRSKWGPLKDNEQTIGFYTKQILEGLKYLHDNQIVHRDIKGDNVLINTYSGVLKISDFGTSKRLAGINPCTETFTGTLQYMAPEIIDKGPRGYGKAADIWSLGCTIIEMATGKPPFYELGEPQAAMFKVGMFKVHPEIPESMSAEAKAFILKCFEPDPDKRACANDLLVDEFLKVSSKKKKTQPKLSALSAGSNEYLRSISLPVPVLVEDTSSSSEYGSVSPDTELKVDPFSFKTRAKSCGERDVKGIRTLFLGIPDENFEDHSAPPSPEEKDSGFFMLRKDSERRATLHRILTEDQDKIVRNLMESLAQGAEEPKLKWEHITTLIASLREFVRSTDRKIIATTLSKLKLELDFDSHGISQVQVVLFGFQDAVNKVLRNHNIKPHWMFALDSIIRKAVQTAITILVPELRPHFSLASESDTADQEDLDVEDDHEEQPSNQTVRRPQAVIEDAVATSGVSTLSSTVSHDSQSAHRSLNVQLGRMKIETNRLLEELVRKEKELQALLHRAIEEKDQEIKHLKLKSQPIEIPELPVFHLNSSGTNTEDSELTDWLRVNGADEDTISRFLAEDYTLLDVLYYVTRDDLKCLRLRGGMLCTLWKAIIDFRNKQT
Kind of data set: ASK1 (AUTO PHOS T838) assay in HEK-293T cells, MSD format. Format: cell-based. Conditions: HEK-293T cells transfected with ASK1-V5, 1 hr compound incubation; read-out: IC50. On the procedure:
ASK1 T838 auto phosphorylation was measured in HEK-293T cells using MSD assay format. HEK 293T cells were seeded in 15 cm plates at a density of 18 million cells and 20 mL DMEM with 10% FBS, Pen/Strep media. The plates were incubated at 37° C. overnight. Media on plates was changed to OPTI-MEM, serum free media and cells were transfected with 9 μg of ASK1-V5 tagged full length plasmid using Lipofectamine 2000 (Invitrogen) and the plates were incubated at 37° C. overnight. Cells were trypsinized, counted on Nexcellometer and plated into 96 well tissue culture plates with 100,000 cells/well and 200 μL media. Cells were incubated for 4 hr at 37° C. then ASK1 compounds were added using a HP 300e. Compounds were tested at 20 μM with 3 fold, 10 point dilution points then incubated for 1 hr at 37° C. A lysis buffer (Cell Signaling) was prepared with protease and phosphatase inhibitor and maintained at 4° C. until use. Media from cells was discarded and 120 μL of cold lysis buffer was added to the cells, the plate was shaken 4° C. for 1 hr. Lysate was mixed using Apricot liquid handler; aspirating up and down 16 times at high speed using 50 μL volume. 50 μL of cell lysates were transferred to a pre-coated MSD plates containing mouse anti-V5 antibody (1:500 dilution) and washed 3× with MSD wash buffer (TBST) and blocked with a 3% BSA solution. Plates were then incubated on a plate shaker overnight at 4° C. Plates were washed 3× with MSD wash buffer and 50 μL of rabbit anti-pASK1 T838 antibody was added to the wells and incubated for 2 hr at room temperature on a plate shaker. Plates were then washed and 50 μL of goat anti-rabbit sulfa-tag (1:500 dilution) was added to wells, and incubated for 1 hr at room temperature on a plate shaker. Plates were washed 3× and 150 μL of 2×MSD Read buffer was added to wells. Plates were immediately read on a MSD Instrument Reader where chemoluminecense signal was measured. Data was analyzed using Graph Pad or Genedata, the data was normalized and plotted, % activity versus log of compound concentration. The IC50 values were obtained from a 4 parameter fit.

The target in the next data set is T2, GST-hASK1 (Homo sapiens, UniProt Q99683).
T2 construct: GST (N); purchased Life Technologies PV4011
T2 sequence (Q99683 1-1374): T1 sequence (Q99683 1-1374)
The experiment in a line: ASK1 TR-FRET assay. Format: biochemical. To be noted: 5 nM GST-hASK1, 100 μM ATP, 2 μM STK Substrate 3. On the procedure: The protein kinase activity of 5 nM GST-hASK1 (Life Technologies PV4011) was assayed with 100 μM ATP and 2 μM of HTRF biotinylated STK Substrate 3 (CisBio Kit 62ST3PEJ), at ambient temperature in 25 mM Hepes, pH 7.5, 50 mM NaCl, 10 mM MgCl2, 0.02% Brij-35, 1 mM DTT, and 1% DMSO.
Briefly, 20 μL aliquots of a 1.5× stock of ASK1, STK Substrate 3 and Assay Buffer were distributed in the wells of a white 384 well Optiplate, prior to addition of 0.3 μL of a 100× compound stock in DMSO, or DMSO alone in Blank and 100% Activity Controls. After a 10 minute pre-incubation, ASK1 protein kinase activity was initiated by addition of 10 μL of 300 μM ATP. After 5 hours, the kinase activity was quenched by addition of 30 μL of CisBio Kit 62ST3PEJ components: 0.5 μM of Streptavidin XL665; and 100×STK Antibody-Eu Cryptate; in Detection Buffer containing sufficient EDTA to chelate Mg^2+ in the assay buffer. The plates were read after 65 minutes in an Envision Plate reader, with the following components and settings: Top Mirror, Lance Delfia Dual (662); UV Ex Filter, 320 nm (111); Emission Filter for donor, 615 nm (203); Emission Filter for Acceptor; 665 nm (205); and 100 μsec delay, with 665/615 ratio output. […]
Background: Time-resolved FRET reads energy transfer from a long-lived donor to a nearby acceptor.

The target of the next data set is T3, ASK1/MAP3K5 (Homo sapiens, UniProt Q99683).
T3 construct: purchased Reaction Biology Corp. (Malvern, PA)
T3 sequence (Q99683 1-1374): T1 sequence (Q99683 1-1374)
Kind of data set: ASK1/MAP3K5 assay by Reaction Biology Corp. (33P-ATP filter-binding). It counts as biochemical. To be noted: 20 μM MBP, 100 μM ATP. The method, then: Alternatively, the protein kinase inhibitory activity of the compounds described herein were tested using the ASK1/MAP3K5 assay by Reaction Biology Corp. (Malvern, PA). The assay procedure follows (and is also available on the Reaction Biology Corp. website). • Base Reaction Buffer: 20 mM Hepes (pH 7.5), 10 mM MgCl2, 1 mM EGTA, 0.02% Brij35, 0.02 mg/mL BSA, 0.1 mM Na3VO4, 2 mM DTT, 1% DMSO; • Substrate: 20 μM of myelin basic protein (MBP) and 100 μM ATP; • Protein kinase: ASK1/MAP3K5. Reaction Procedure: • 1. Prepare indicated substrate in freshly prepared Base Reaction Buffer. • 2. Deliver any required cofactors to the substrate solution. • 3. Deliver indicated kinase into the substrate solution and gently mix. • 4. Deliver compounds in DMSO into the kinase reaction mixture by Acoustic; technology (Echo550; nanoliter range), incubate for 20 minutes at room temperature. • 5. Deliver ^33P-ATP (specific activity 10 μCi/μL) into the reaction mixture to initiate the reaction. • 6. Incubate kinase reaction for 2 hours at room temperature. • 7. Reactions are spotted onto P81 ion exchange paper. • 8. Detect kinase activity by filter-binding method.

The nature of data set [2]: In vivo brain penetration (rat Kpuu). To be noted: brain and plasma (unbound concentrations), IV infusion four hours, 1 mg/kg, steady state.
Method: To evaluate the CNS penetration of the compounds described herein, several compounds were selected for in vivo rat Kpuu studies. In these experiments the compounds are administered via an IV infusion (using N,N-dimethylacetamide:ethanol:1,2-propylene glycol:water in a 1:1:3:5 ratio as the vehicle) in the carotid artery for a period of four hours (1 mg/kg, 0.1 mg/mL) to reach steady state. After this time the plasma and brain concentration levels are quantified, and the values are adjusted by the measured protein binding in plasma and brain homogenate to calculate the K puu (see Di, L.; Kerns, E. H. Blood-Brain Barrier in Drug Discovery (Wiley)) according to the equation below. […]
Plasma and brain protein binding values were generated via the Rapid Equilibrium Dialysis method. […] At the conclusion of incubation samples were taken from both matrix and buffered compartments, matrix-matched using blank buffer and matrix, extracted with acetonitrile, diluted with water, and analyzed utilizing an Agilent RapidFire 365 high-throughput LC coupled with MS/MS detection via an AB Sciex 5500. Free fractions (fu) were then calculated by comparing internal standard/analyte peak-area ratios of matrix and buffered compartments.
Total drug concentration in plasma and brain tissue was measured via well-established bioanalytical extraction (protein precipitation) and detection methods (LC-MS/MS). […]
A further data set addresses T4, MDR1 (Homo sapiens, UniProt P08183).
T4 construct: host or cells: MDCK
Kind of data set: MDR1-MDCK assay. It counts as in vitro ADME. To be noted: read-out: in vitro ER (efflux ratio).

As a reminder, the IC50 is the point on the concentration scale where inhibition reaches its midpoint.

T4 sequence (P08183 whole entry): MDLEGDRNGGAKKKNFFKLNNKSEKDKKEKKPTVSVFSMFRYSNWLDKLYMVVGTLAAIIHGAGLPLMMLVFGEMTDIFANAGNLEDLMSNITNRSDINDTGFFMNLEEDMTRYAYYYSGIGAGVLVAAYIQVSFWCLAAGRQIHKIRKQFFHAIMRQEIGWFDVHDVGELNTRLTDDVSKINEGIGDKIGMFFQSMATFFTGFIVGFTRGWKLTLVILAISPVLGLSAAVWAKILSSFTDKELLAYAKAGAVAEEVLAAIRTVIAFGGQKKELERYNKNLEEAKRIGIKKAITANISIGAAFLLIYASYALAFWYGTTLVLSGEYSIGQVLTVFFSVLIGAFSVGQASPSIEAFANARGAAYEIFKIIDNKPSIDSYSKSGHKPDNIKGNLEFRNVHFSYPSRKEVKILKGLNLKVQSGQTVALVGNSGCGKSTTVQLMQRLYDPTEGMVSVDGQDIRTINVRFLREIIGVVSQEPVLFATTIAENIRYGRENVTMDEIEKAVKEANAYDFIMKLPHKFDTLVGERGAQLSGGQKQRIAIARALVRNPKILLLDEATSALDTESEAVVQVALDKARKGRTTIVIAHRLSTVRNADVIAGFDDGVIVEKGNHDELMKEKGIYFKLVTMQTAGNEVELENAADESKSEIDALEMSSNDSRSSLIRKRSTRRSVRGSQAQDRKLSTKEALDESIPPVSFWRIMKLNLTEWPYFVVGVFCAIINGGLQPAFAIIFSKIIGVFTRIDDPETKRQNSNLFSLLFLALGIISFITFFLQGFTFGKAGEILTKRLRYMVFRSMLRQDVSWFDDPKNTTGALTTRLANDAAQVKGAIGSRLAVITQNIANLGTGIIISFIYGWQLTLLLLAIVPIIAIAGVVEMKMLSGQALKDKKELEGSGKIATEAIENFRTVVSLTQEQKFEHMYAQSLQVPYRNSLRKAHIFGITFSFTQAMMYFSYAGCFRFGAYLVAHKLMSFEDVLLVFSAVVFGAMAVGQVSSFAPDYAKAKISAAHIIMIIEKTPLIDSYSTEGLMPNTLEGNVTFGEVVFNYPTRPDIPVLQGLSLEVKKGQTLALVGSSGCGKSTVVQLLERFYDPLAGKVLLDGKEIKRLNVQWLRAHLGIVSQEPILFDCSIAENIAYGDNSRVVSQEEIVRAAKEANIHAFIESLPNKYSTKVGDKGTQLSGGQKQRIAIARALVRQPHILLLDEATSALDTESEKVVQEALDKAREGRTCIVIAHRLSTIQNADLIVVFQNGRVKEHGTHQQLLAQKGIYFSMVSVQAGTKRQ
Method for MDR1: To predict the CNS penetration of the compounds described herein, several compounds were selected for an in vitro MDR1-MDCK assay. These experiments are conducted using human MDR1 transfected MDCK cells (Absorption Systems, Exton, PA) and the compounds are tested at 1 μM concentration prepared in transport buffer (Hank's balanced salt solution with HEPES) and following the steps below: • 1. MDR1-MDCK cell are cultured for 7 days in 96 well transwell insert plates (Corning). Insert plates are washed before the assay and TEER (trans epithelial electric resistance) is measured. • 2. These plates are loaded with test compound solution 85 μL for A-B transport and 260 μL for B-A transport in the respective donor compartment. The volume of receiver buffer (Transport buffer supplemented with 1% BSA) in the respective receiver compartment is 250 μL and 75 μL. • 3. 10 μL samples is taken from donor compartment (T=0 timepoint) • 4. Assay plates are incubated for 120 minutes. • 5. At 120 minutes (T=120 timepoint) samples from respective donor (10 μL) and receiver (50 μL) compartments is taken. • 6. After addition of 40 μL transport buffer with BSA to donor samples, crash solution (Acetonitrile with internal standard, 110 μL) is added to all samples. • 7. […] Samples are analyzed using LC-MS/MS coupled with high throughput injection system. • 9. […]

On to `COc1ncccc1C(=O)Nc1cccc(-c2nncn2C(C)C)n1` [Compound 1, N-(6-(4-Isopropyl-4H-1,2,4-triazol-3-yl)pyridin-2-yl)-2-methoxynicotinamide], for which the concentration for half-maximal inhibition (IC50) in data set [1] is no more than 1000 nM; on GST-hASK1 it was less than 100 nM.
Take `COc1ncccc1C(=O)Nc1cccc(-c2nncn2C2(C(F)(F)F)CC2)n1` [Compound 16, 2-Methoxy-N-(6-(4-(1-(trifluoromethyl)cyclopropyl)-4H-1,2,4-triazol-3-yl)pyridin-2-yl)nicotinamide]: the 50% inhibitory concentration (IC50) in data set [1] is no more than 1000 nM; on ASK1/MAP3K5, no more than 100 nM. Also, the Kp uu at 4 h in data set [2] stood at 0.41. Moreover, the efflux ratio at 120 min, 1 μM on MDR1 is less than 3.

Source of the values: patent US12404263B2, “ASK1 inhibiting agents” (BIOGEN MA INC., priority 2018, dated 2025).
